Source: the supplement of paper PMC10307832

How the values were obtained:
Assay in all cases: relative viability (nuclei count vs DMSO), 5 days (fraction); higher = more cells survive
Midostaurin + Tozasertib = compound: CO[C@@H]1[C@H](N(C)C(=O)c2ccccc2)C[C@H]2O[C@]1(C)n1c3ccccc3c3c4c(c5c6ccccc6n2c5c31)C(=O)NC4 [Midostaurin] + Cc1cc(Nc2cc(N3CCN(C)CC3)nc(Sc3ccc(NC(=O)C4CC4)cc3)n2)n[nH]1 [Tozasertib] (partner 0.1 µM)
Outline: (§1)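 Cells from lung cancer lines were seeded into 1536-well plates and, one day later, dosed by pin tool. Treatments were either a single drug or a fixed dose of an anchor drug with five library-drug doses (not always all listed) in √10 steps. After 5 days, nuclei were stained in a one-step fixation (final 0.05% Triton X-100, 1% formaldehyde, 1 ug/ml Hoechst) and counted on 4× images, and relative viability is the treated-to-vehicle nuclei ratio, as the median of duplicate plates.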

Midostaurin + Pictilisib = compound: CO[C@@H]1[C@H](N(C)C(=O)c2ccccc2)C[C@H]2O[C@]1(C)n1c3ccccc3c3c4c(c5c6ccccc6n2c5c31)C(=O)NC4 [Midostaurin] + CS(=O)(=O)N1CCN(Cc2cc3nc(-c4cccc5[nH]ncc45)nc(N4CCOCC4)c3s2)CC1 [Pictilisib] (partner 1 µM)
Outline: as §1

Midostaurin + Crizotinib = compound: CO[C@@H]1[C@H](N(C)C(=O)c2ccccc2)C[C@H]2O[C@]1(C)n1c3ccccc3c3c4c(c5c6ccccc6n2c5c31)C(=O)NC4 [Midostaurin] + C[C@@H](Oc1cc(-c2cnn(C3CCNCC3)c2)cnc1N)c1c(Cl)ccc(F)c1Cl [Crizotinib] (partner 1 µM)
Outline: as §1

Midostaurin + Linsitinib = compound: CO[C@@H]1[C@H](N(C)C(=O)c2ccccc2)C[C@H]2O[C@]1(C)n1c3ccccc3c3c4c(c5c6ccccc6n2c5c31)C(=O)NC4 [Midostaurin] + C[C@]1(O)C[C@@H](c2nc(-c3ccc4ccc(-c5ccccc5)nc4c3)c3c(N)nccn32)C1 [Linsitinib] (partner 1 µM)
Outline: as §1

Midostaurin + OSI-027 = compound: CO[C@@H]1[C@H](N(C)C(=O)c2ccccc2)C[C@H]2O[C@]1(C)n1c3ccccc3c3c4c(c5c6ccccc6n2c5c31)C(=O)NC4 [Midostaurin] + COc1cccc2cc(-c3nc([C@H]4CC[C@H](C(=O)O)CC4)n4ncnc(N)c34)[nH]c12 [OSI-027] (partner 0.5 µM)
Outline: as §1

Cell Line | relative viability (Midostaurin + Tozasertib; first compound 0.01 µM) | relative viability (Midostaurin + Tozasertib; first compound 0.03162 µM) | relative viability (Midostaurin + Tozasertib; first compound 0.1 µM) | relative viability (Midostaurin + Tozasertib; first compound 0.3162 µM) | relative viability (Midostaurin + Pictilisib; first compound 0.01 µM) | relative viability (Midostaurin + Pictilisib; first compound 0.03162 µM) | relative viability (Midostaurin + Pictilisib; first compound 0.1 µM) | relative viability (Midostaurin + Pictilisib; first compound 0.3162 µM) | relative viability (Midostaurin + Crizotinib; first compound 0.01 µM) | relative viability (Midostaurin + Crizotinib; first compound 0.03162 µM) | relative viability (Midostaurin + Crizotinib; first compound 0.1 µM) | relative viability (Midostaurin + Crizotinib; first compound 0.3162 µM) | relative viability (Midostaurin + Linsitinib; first compound 0.01 µM) | relative viability (Midostaurin + Linsitinib; first compound 0.03162 µM) | relative viability (Midostaurin + Linsitinib; first compound 0.1 µM) | relative viability (Midostaurin + Linsitinib; first compound 0.3162 µM) | relative viability (Midostaurin + OSI-027; first compound 0.01 µM) | relative viability (Midostaurin + OSI-027; first compound 0.03162 µM) | relative viability (Midostaurin + OSI-027; first compound 0.1 µM) | relative viability (Midostaurin + OSI-027; first compound 0.3162 µM)
NCI-H2085 | 0.807 | 0.764 | 0.663 | 0.582 | 0.501 | 0.428 | 0.448 | 0.446 | 0.769 | 0.805 | 0.814 | 0.582 | 0.842 | 0.865 | 0.801 | 0.768 | 0.752 | 0.655 | 0.837 | 0.461
NCI-H2087 | 0.249 | 0.303 | 0.225 | 0.207 | 0.851 | 0.769 | 0.979 | 1.18 | 0.794 | 0.655 | 0.835 | 0.656 | 0.985 | 0.885 | 0.934 | 1.01 | 0.567 | 0.491 | 0.573 | 0.554
NCI-H2126 | 0.861 | 0.8 | 0.844 | 0.857 | 0.541 | 0.441 | 0.499 | 0.523 | 1.02 | 0.951 | 0.965 | 1.04 | 0.742 | 0.673 | 0.748 | 0.792 | 0.808 | 0.545 | 0.685 | 0.666
NCI-H2228 | 0.254 | 0.284 | 0.265 | 0.216 | 0.422 | 0.454 | 0.452 | 0.617 | 0.662 | 0.434 | 0.361 | 0.509 | 0.731 | 0.879 | 0.828 | 0.679 | 0.652 | 0.603 | 0.687 | 0.703
NCI-H2347 | 0.494 | 0.553 | 0.616 | 0.506 | 0.48 | 0.493 | 0.648 | 0.634 | 0.678 | 0.684 | 0.802 | 0.808 | 0.896 | 0.837 | 0.899 | 0.927 | 0.453 | 0.35 | 0.365 | 0.38
NCI-H2405 | 0.752 | 0.677 | 0.742 | 0.585 | 0.464 | 0.516 | – | 0.379 | 0.787 | 0.825 | 0.797 | 0.842 | 0.965 | 1.01 | – | 0.853 | 0.65 | 0.6 | 0.525 | 0.633
NCI-H3122 | 0.365 | 0.283 | 0.386 | 0.336 | 0.681 | 0.583 | 0.64 | 0.734 | 0.286 | 0.258 | 0.3 | 0.331 | 0.913 | 0.987 | 1.13 | 1.05 | 0.932 | 0.492 | 1.06 | 1.41
PC-3 [JPC-3] | 0.886 | 0.809 | 0.865 | 0.867 | 0.787 | 0.623 | 0.785 | 0.789 | 0.99 | 0.824 | 0.966 | 0.943 | 0.913 | 0.862 | 0.925 | 0.934 | 0.718 | 0.579 | 0.78 | 0.806
PC-14 | 0.616 | 0.574 | 0.598 | 0.491 | 0.674 | 0.61 | 0.633 | 0.75 | 0.903 | 0.882 | 0.832 | 0.907 | 0.995 | 0.943 | 0.996 | 0.975 | 0.92 | 0.811 | 0.875 | 1.02
RERF-LC-KJ | 0.47 | 0.464 | 0.433 | 0.321 | 0.501 | 0.51 | 0.579 | 0.46 | 0.892 | 0.764 | 0.813 | 0.811 | 0.945 | 0.868 | 0.89 | 0.926 | 0.622 | 0.614 | 0.673 | 0.663
SK-LU-1 | 0.337 | 0.449 | 0.278 | 0.202 | 0.602 | 0.676 | 0.56 | 0.572 | 0.913 | 0.948 | 0.914 | 0.584 | 1.11 | 0.961 | 1.06 | 0.664 | 0.347 | 0.333 | 0.321 | 0.271
SK-MES-1 | 0.803 | 0.819 | 0.741 | 0.578 | 0.412 | 0.332 | 0.431 | 0.368 | 0.966 | 0.929 | 0.931 | 0.94 | 1.05 | 0.954 | 1.06 | 1.07 | 0.55 | 0.531 | 0.548 | 0.44
SW 1573 | 0.177 | 0.187 | 0.173 | 0.157 | 0.557 | 0.474 | 0.456 | 0.454 | 0.704 | 1.01 | 0.782 | 0.631 | 0.747 | 0.848 | 0.979 | 1.02 | 0.619 | 0.82 | 0.581 | 0.748
